# Tested on: 463943-066-T-J2-PDC complex spheroid growth
# Test: Anticancer human tumor 463943-066-T-J2-PDC patient-derived colon adenocarcinoma cell line growth inhibition [Asc]
# Conditions: for IC50: curve of first compound; for viability, T/C: stronger effect = lower value
# Summary of the method: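 Tumor cells were grown as multicellular spheroids with stromal HUVEC and mesenchymal stem cells and treated singly or in combination. Concentrations fell in half-log steps from the clinical Cmax, or from 10 microM where none was known.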
# 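Also: compound exposure lasted 7 days.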
# 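For viability, T/C in this document: 100% = DMSO vehicle control wells.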
compound,measurement,setting,value
C#Cc1c(F)ccc2cc(O)cc(-c3ncc4c(N5CC6CCC(C5)N6)nc(OCC56CCCN5CC(F)C6)nc4c3F)c12 (centres undefined) + CNC(C)C(=O)NC1CN(S(=O)(=O)c2cccc(S(=O)(=O)N3CCC4CCC(C(=O)NC(c5ccccc5)c5ccccc5)N4C(=O)C(NC(=O)C(C)NC)C3)c2)CCC2CCC(C(=O)NC(c3ccccc3)c3ccccc3)N2C1=O,IC50,second compound 0.00316 µM,> 10 µM
same,IC50,second compound 0.01 µM,> 10 µM
same,IC50,second compound 0.0316 µM,> 10 µM
same,IC50,second compound 0.1 µM,> 10 µM
same,IC50,second compound 0.316 µM,> 10 µM
same,IC50,second compound 1 µM,> 10 µM
same,"viability, T/C","second compound 0.00316 µM, first compound 0.0316 µM",105%
same,"viability, T/C","second compound 0.00316 µM, first compound 0.1 µM",103%
same,"viability, T/C","second compound 0.00316 µM, first compound 0.316 µM",94.3%
same,"viability, T/C","second compound 0.00316 µM, first compound 1 µM",123%
same,"viability, T/C","second compound 0.00316 µM, first compound 3.16 µM",94%
same,"viability, T/C","second compound 0.00316 µM, first compound 10 µM",99.5%
same,"viability, T/C","second compound 0.01 µM, first compound 0.0316 µM",101%
same,"viability, T/C","second compound 0.01 µM, first compound 0.1 µM",99.9%
same,"viability, T/C","second compound 0.01 µM, first compound 0.316 µM",97.4%
same,"viability, T/C","second compound 0.01 µM, first compound 1 µM",102%
same,"viability, T/C","second compound 0.01 µM, first compound 3.16 µM",99.3%
same,"viability, T/C","second compound 0.01 µM, first compound 10 µM",101%
same,"viability, T/C","second compound 0.0316 µM, first compound 0.0316 µM",102%
same,"viability, T/C","second compound 0.0316 µM, first compound 0.1 µM",101%
same,"viability, T/C","second compound 0.0316 µM, first compound 0.316 µM",94.3%
same,"viability, T/C","second compound 0.0316 µM, first compound 1 µM",103%
same,"viability, T/C","second compound 0.0316 µM, first compound 3.16 µM",100%
same,"viability, T/C","second compound 0.0316 µM, first compound 10 µM",91.3%
same,"viability, T/C","second compound 0.1 µM, first compound 0.0316 µM",109%
same,"viability, T/C","second compound 0.1 µM, first compound 0.1 µM",92%
same,"viability, T/C","second compound 0.1 µM, first compound 0.316 µM",98%
same,"viability, T/C","second compound 0.1 µM, first compound 1 µM",94.6%
same,"viability, T/C","second compound 0.1 µM, first compound 3.16 µM",101%
same,"viability, T/C","second compound 0.1 µM, first compound 10 µM",85.7%
same,"viability, T/C","second compound 0.316 µM, first compound 0.0316 µM",88%
same,"viability, T/C","second compound 0.316 µM, first compound 0.1 µM",94.2%
same,"viability, T/C","second compound 0.316 µM, first compound 0.316 µM",89.6%
same,"viability, T/C","second compound 0.316 µM, first compound 1 µM",93.3%
same,"viability, T/C","second compound 0.316 µM, first compound 3.16 µM",100%
same,"viability, T/C","second compound 0.316 µM, first compound 10 µM",81.8%
same,"viability, T/C","second compound 1 µM, first compound 0.0316 µM",90.7%
same,"viability, T/C","second compound 1 µM, first compound 0.1 µM",85.6%
same,"viability, T/C","second compound 1 µM, first compound 0.316 µM",80.8%
same,"viability, T/C","second compound 1 µM, first compound 1 µM",87.7%
same,"viability, T/C","second compound 1 µM, first compound 3.16 µM",85.6%
same,"viability, T/C","second compound 1 µM, first compound 10 µM",72%
NC(=O)C(=Cn1cnc(-c2cc(C(F)(F)F)cc(C(F)(F)F)c2)n1)c1cncnc1 + CNC(C)C(=O)NC1CN(S(=O)(=O)c2cccc(S(=O)(=O)N3CCC4CCC(C(=O)NC(c5ccccc5)c5ccccc5)N4C(=O)C(NC(=O)C(C)NC)C3)c2)CCC2CCC(C(=O)NC(c3ccccc3)c3ccccc3)N2C1=O,IC50,second compound 0.00316 µM,> 0.3 µM
same,IC50,second compound 0.01 µM,> 0.3 µM
same,IC50,second compound 0.0316 µM,> 0.3 µM
same,IC50,second compound 0.1 µM,> 0.3 µM
same,IC50,second compound 0.316 µM,> 0.3 µM
same,IC50,second compound 1 µM,> 0.3 µM
same,"viability, T/C","second compound 0.00316 µM, first compound 0.000949 µM",84.3%
same,"viability, T/C","second compound 0.00316 µM, first compound 0.003 µM",77.2%
same,"viability, T/C","second compound 0.00316 µM, first compound 0.00949 µM",77.4%
same,"viability, T/C","second compound 0.00316 µM, first compound 0.03 µM",78.7%
same,"viability, T/C","second compound 0.00316 µM, first compound 0.0949 µM",73.2%
same,"viability, T/C","second compound 0.00316 µM, first compound 0.3 µM",64.8%
same,"viability, T/C","second compound 0.01 µM, first compound 0.000949 µM",95.8%
same,"viability, T/C","second compound 0.01 µM, first compound 0.003 µM",87.6%
same,"viability, T/C","second compound 0.01 µM, first compound 0.00949 µM",80.8%
same,"viability, T/C","second compound 0.01 µM, first compound 0.03 µM",84.9%
same,"viability, T/C","second compound 0.01 µM, first compound 0.0949 µM",85.1%
same,"viability, T/C","second compound 0.01 µM, first compound 0.3 µM",65.3%
same,"viability, T/C","second compound 0.0316 µM, first compound 0.000949 µM",82.4%
same,"viability, T/C","second compound 0.0316 µM, first compound 0.003 µM",81.2%
same,"viability, T/C","second compound 0.0316 µM, first compound 0.00949 µM",80.4%
same,"viability, T/C","second compound 0.0316 µM, first compound 0.03 µM",88.3%
same,"viability, T/C","second compound 0.0316 µM, first compound 0.0949 µM",83.9%
same,"viability, T/C","second compound 0.0316 µM, first compound 0.3 µM",66.6%
same,"viability, T/C","second compound 0.1 µM, first compound 0.000949 µM",90.7%
same,"viability, T/C","second compound 0.1 µM, first compound 0.003 µM",82.6%
same,"viability, T/C","second compound 0.1 µM, first compound 0.00949 µM",82.5%
same,"viability, T/C","second compound 0.1 µM, first compound 0.03 µM",85%
same,"viability, T/C","second compound 0.1 µM, first compound 0.0949 µM",80.5%
same,"viability, T/C","second compound 0.1 µM, first compound 0.3 µM",67.3%
same,"viability, T/C","second compound 0.316 µM, first compound 0.000949 µM",85.2%
same,"viability, T/C","second compound 0.316 µM, first compound 0.003 µM",82.4%
same,"viability, T/C","second compound 0.316 µM, first compound 0.00949 µM",82.5%
same,"viability, T/C","second compound 0.316 µM, first compound 0.03 µM",78.9%
same,"viability, T/C","second compound 0.316 µM, first compound 0.0949 µM",80.3%
same,"viability, T/C","second compound 0.316 µM, first compound 0.3 µM",64.2%
same,"viability, T/C","second compound 1 µM, first compound 0.000949 µM",78.2%
same,"viability, T/C","second compound 1 µM, first compound 0.003 µM",91.9%
same,"viability, T/C","second compound 1 µM, first compound 0.00949 µM",78.5%
same,"viability, T/C","second compound 1 µM, first compound 0.03 µM",77.4%
same,"viability, T/C","second compound 1 µM, first compound 0.0949 µM",73.3%
same,"viability, T/C","second compound 1 µM, first compound 0.3 µM",58.5%
